Patent US12570659B2, “Bicyclic heteroaryl compounds useful as IRAK4 inhibitors” (BRISTOL-MYERS SQUIBB COMPANY, priority 2019, dated 2026)

Experiments:
IRAK4 = IRAK4 (Homo sapiens (Human), UniProt Q9NWZ3); assay: IRAK4 Inhibition Assay; assay type: biochemical; details: ATP 500 μM; IRAK4 0.6 nM; 60 min room temperature
Outline: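 Reaction started by combining IRAK4 with substrates and compound, run 60 min at room temperature and stopped with 35 mM EDTA. Fluorescent substrate and phosphorylated product were separated electrophoretically on a Caliper LabChip; inhibition normalized to no-enzyme (100%) and vehicle-only (0%) controls.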

JAK3 kinase = JAK3 kinase (Homo sapiens (Human), UniProt P52333); assay: JAK3 Homogeneous Time Resolved Fluorescence (HTRF) Assay; assay type: binding; details: for IC50: competition binding with fluorescein-labeled ATP competitive probe; for Ratio of JAK3 IC50 to IRAK4 IC50: selectivity for IRAK4 over JAK3
Outline: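 TR-FRET competition binding: 1 nM His- or GST-tagged JAK3 with 0.2 nM Tb-labeled anti-tag antibody, fluorescein ATP-competitive probe at its Kd, and compound for one hour. FRET read at 495/520 nm, normalized to no-compound signal. IC50 from 11 concentrations, 4-parameter logistic fit.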

Sequence of IRAK4 (Q9NWZ3 whole entry, species assumed): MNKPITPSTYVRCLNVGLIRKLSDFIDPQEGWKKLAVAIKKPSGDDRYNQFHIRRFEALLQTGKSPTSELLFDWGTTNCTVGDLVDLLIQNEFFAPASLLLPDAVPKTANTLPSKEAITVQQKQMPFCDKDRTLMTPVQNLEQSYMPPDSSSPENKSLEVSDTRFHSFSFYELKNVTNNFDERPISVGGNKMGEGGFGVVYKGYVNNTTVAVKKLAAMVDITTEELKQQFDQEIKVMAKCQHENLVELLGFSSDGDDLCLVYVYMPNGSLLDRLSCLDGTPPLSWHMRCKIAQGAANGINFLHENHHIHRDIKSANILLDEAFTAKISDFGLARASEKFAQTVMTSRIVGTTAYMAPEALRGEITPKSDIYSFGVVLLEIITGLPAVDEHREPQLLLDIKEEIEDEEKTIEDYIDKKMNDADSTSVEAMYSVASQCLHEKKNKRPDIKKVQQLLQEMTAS
Sequence of JAK3 kinase (P52333 whole entry): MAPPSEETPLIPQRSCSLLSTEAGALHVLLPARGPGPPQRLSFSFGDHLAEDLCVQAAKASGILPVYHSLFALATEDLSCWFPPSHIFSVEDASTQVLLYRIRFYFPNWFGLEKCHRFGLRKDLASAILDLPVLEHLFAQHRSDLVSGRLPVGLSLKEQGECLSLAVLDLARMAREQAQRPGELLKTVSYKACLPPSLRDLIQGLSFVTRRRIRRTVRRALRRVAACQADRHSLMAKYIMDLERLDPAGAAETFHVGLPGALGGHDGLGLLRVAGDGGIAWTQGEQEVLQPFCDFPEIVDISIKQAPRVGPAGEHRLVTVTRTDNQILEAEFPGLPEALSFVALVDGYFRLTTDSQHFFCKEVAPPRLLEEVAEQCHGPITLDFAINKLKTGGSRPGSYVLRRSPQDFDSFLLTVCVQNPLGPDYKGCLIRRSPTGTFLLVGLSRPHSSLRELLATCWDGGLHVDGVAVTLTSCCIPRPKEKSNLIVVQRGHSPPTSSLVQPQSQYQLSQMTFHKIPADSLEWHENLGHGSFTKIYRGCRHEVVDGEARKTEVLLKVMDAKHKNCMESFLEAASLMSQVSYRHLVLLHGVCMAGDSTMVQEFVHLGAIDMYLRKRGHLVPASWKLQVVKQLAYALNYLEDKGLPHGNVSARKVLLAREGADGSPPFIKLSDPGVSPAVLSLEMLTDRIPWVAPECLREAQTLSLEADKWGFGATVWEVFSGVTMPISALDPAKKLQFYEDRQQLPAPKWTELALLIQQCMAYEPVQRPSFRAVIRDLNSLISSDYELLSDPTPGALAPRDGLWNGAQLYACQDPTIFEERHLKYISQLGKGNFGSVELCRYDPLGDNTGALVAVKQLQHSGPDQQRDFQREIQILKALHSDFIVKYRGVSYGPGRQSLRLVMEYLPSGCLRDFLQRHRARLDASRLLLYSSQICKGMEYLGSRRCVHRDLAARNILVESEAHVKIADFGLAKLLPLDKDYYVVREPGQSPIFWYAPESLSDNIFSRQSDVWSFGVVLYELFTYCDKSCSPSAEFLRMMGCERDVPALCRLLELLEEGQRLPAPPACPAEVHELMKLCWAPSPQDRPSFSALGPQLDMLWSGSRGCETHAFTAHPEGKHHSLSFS

| SMILES | IC50 (IRAK4) [nM] | IC50 (JAK3 kinase) [nM] | Ratio of JAK3 IC50 to IRAK4 IC50 (JAK3 kinase) |
| --- | --- | --- | --- |
| CC(C)(O)[C@H](F)CNC(=O)c1cnn2cc(-c3nccs3)cc2c1NC1CCOCC1 [Example 19, (R)—N-(2-fluoro-3-hydroxy-3-methylbutyl)-4-((tetrahydro-2H-pyran-4-yl)amino)-6-(thiazol-2-yl) pyrrolo[1,2-b]pyridazine-3-carboxamide] | 15 | > 10000 | >667 |
| Nc1c(C(=O)NCCN2CCOCC2)cnn2cc(-c3ccncc3F)cc12 [Example 79, 4-amino-6-(3-fluoropyridin-4-yl)-N-(2-morpholinoethyl)pyrrolo[1,2-b]pyridazine-3-carboxamide] | 110 | > 50000 | >455 |
| CC(C)Nc1c(C(=O)NCCC(C)(C)O)cnn2cc(-c3ccncc3)nc12 [Example 105, N-(3-hydroxy-3-methylbutyl)-8-(isopropylamino)-2-(pyridin-4-yl)imidazo[1,2-b]pyridazine-7-carboxamide] | 62 | > 50000 | >806 |
| COc1cc(-c2cc3c(NC(C)C)c(C(=O)NCCC(C)(C)O)cnn3c2)c(F)cn1 [Example 78, 6-(5-fluoro-2-methoxypyridin-4-yl)-N-(3-hydroxy-3-methylbutyl)-4-(isopropylamino) pyrrolo[1,2-b]pyridazine-3-carboxamide] | 9.1 | > 50000 | >5495 |
| COc1ccc(-c2cc3ncc(C(=O)NC[C@@H](F)C(C)(C)O)c(NC(C)C)n3n2)cn1 [Example 142, (R)—N-(2-fluoro-3-hydroxy-3-methylbutyl)-7-(isopropylamino)-2-(6-methoxypyridin-3-yl)pyrazolo[1,5-a]pyrimidine-6-carboxamide] | 140 | > 10000 | >71 |
| CC(C)Nc1c(C(=O)NC[C@@H](F)C(C)(C)O)cnn2cc(-c3ccc(F)cc3)cc12 [Example 13, (R)—N-(2-fluoro-3-hydroxy-3-methylbutyl)-6-(4-fluorophenyl)-4-(isopropylamino)pyrrolo[1,2-b]pyridazine-3-carboxamide] | 29 | > 50000 | >1724 |
| Cc1cncc(-c2cc3ncc(C(=O)NC[C@@H](F)C(C)(C)O)c(NC(C)C)n3n2)c1 [Example 146, (R)—N-(2-fluoro-3-hydroxy-3-methylbutyl)-7-(isopropylamino)-2-(5-methylpyridin-3-yl)pyrazolo[1,5-a]pyrimidine-6-carboxamide] | 480 | > 50000 | >104 |
| CC(C)Nc1c(C(=O)NC[C@@H](F)C(C)(C)O)cnn2cc(-c3cnc(N)nc3)cc12 [Example 15, (R)-6-(2-aminopyrimidin-5-yl)-N-(2-fluoro-3-hydroxy-3-methylbutyl)-4-(isopropylamino) pyrrolo[1,2-b]pyridazine-3-carboxamide] | 22 | > 50000 | >2273 |
| CCOC(=O)N[C@H]1CC[C@H](NC(=O)c2cnn3cc(-c4ccncc4F)cc3c2NC(C)C)CC1 [Example 67, ethyl ((1r,4r)-4-(6-(3-fluoropyridin-4-yl)-4-(isopropylamino)pyrrolo[1,2-b]pyridazine-3-carboxamido)cyclohexyl)carbamate] | 13 | > 50000 | 3846 |
| CC(C)Nc1c(C(=O)NC[C@@H](F)C(C)(C)O)cnn2cc(C3CC3)cc12 [Example 36, (R)-6-cyclopropyl-N-(2-fluoro-3-hydroxy-3-methylbutyl)-4-(isopropylamino)pyrrolo[1,2-b]pyridazine-3-carboxamide] | 46 | > 50000 | >1087 |
| CC(C)Nc1c(C(=O)N[C@H]2CC[C@H](N)CC2)cnn2cc(-c3cccnc3)cc12 [Example 52, N-((1r,4r)-4-aminocyclohexyl)-4-(isopropylamino)-6-(pyridin-3-yl)pyrrolo[1,2-b]pyridazine-3-carboxamide] | 40 | ~43000 | ~1075 |
| COC(=O)c1cncc(-c2cc3ncc(C(=O)NC[C@@H](F)C(C)(C)O)c(NC(C)C)n3n2)c1 [Example 149, methyl (R)-5-(6-((2-fluoro-3-hydroxy-3-methylbutyl)carbamoyl)-7-(isopropylamino)pyrazolo[1,5-a]pyrimidin-2-yl)nicotinate] | 210 | > 50000 | >238 |
| CC(C)Nc1c(C(=O)NC[C@@H](F)C(C)(C)O)cnn2cc(-c3cncs3)nc12 [Example 102, (R)—N-(2-fluoro-3-hydroxy-3-methylbutyl)-8-(isopropylamino)-2-(thiazol-5-yl)imidazo[1,2-b]pyridazine-7-carboxamide] | 22 | > 50000 | >2273 |
| COc1ccc(-c2cc3c(NC4CCOCC4)c(C(=O)NC[C@@H](F)C(C)(C)O)cnn3c2)cn1 [Example 10, (R)—N-(2-fluoro-3-hydroxy-3-methylbutyl)-6-(6-methoxypyridin-3-yl)-4-((tetrahydro-2H-pyran-4-yl)amino)pyrrolo[1,2-b]pyridazine-3-carboxamide] | 57 | > 10000 | >175 |
| CC(C)Nc1c(C(=O)NC[C@@H](F)C(C)(C)O)cnn2cc(-c3cccnc3)nc12 [Example 99, (R)—N-(2-fluoro-3-hydroxy-3-methylbutyl)-8-(isopropylamino)-2-(pyridin-3-yl) imidazo[1,2-b]pyridazine-7-carboxamide] | 66 | > 10000 | >152 |
| CC(C)Nc1c(C(=O)NCCC(C)(C)O)cnn2cc(-c3cn[nH]c3)nc12 [Example 107, N-(3-hydroxy-3-methylbutyl)-8-(isopropylamino)-2-(1H-pyrazol-4-yl)imidazo[1,2-b]pyridazine-7-carboxamide] | 90 | > 50000 | >556 |
| Cc1ccccc1-c1cc2ncc(C(=O)NC[C@@H](F)C(C)(C)O)c(NC(C)C)n2n1 [Example 136, (R)—N-(2-fluoro-3-hydroxy-3-methylbutyl)-7-(isopropylamino)-2-(o-tolyl)pyrazolo[1,5-a]pyrimidine-6-carboxamide] | 510 | > 10000 | >20 |
| Cc1cnccc1-c1cc2c(NC(C)C)c(C(=O)NCCC(C)(C)O)cnn2c1 [Example 72, N-(3-hydroxy-3-methylbutyl)-4-(isopropylamino)-6-(3-methylpyridin-4-yl)pyrrolo[1,2-b]pyridazine-3-carboxamide] | 70 | > 50000 | >714 |
| CC(C)Nc1c(C(=O)NC[C@@H](F)C(C)(C)O)cnn2cc(-c3cncnc3)cc12 [Example 4, (R)—N-(2-fluoro-3-hydroxy-3-methylbutyl)-4-(isopropylamino)-6-(pyrimidin-5-yl)pyrrolo[1,2-b]pyridazine-3-carboxamide] | 19 | > 50000 | >2632 |
| COc1cccc(-c2cc3ncc(C(=O)NC[C@@H](F)C(C)(C)O)c(NC(C)C)n3n2)n1 [Example 144, (R)—N-(2-fluoro-3-hydroxy-3-methylbutyl)-7-(isopropylamino)-2-(6-methoxypyridin-2-yl)pyrazolo[1,5-a] pyrimidine-6-carboxamide] | 1400 | > 50000 | >36 |
| CC(C)Nc1c(C(=O)NC[C@@H](F)C(C)(C)O)cnc2cc(-c3ccncc3F)nn12 [Example 137, (R)—N-(2-fluoro-3-hydroxy-3-methylbutyl)-2-(3-fluoropyridin-4-yl)-7-(isopropylamino) pyrazolo[1,5-a]pyrimidine-6-carboxamide] | 8.4 | > 10000 | >1190 |
| CC(C)(O)[C@H](F)CNC(=O)c1cnc2cc(-c3ccncc3F)nn2c1NCCC1CCCCO1 (stereo partly drawn) [Example 160, N—((R)-2-fluoro-3-hydroxy-3-methylbutyl)-2-(3-fluoropyridin-4-yl)-7-((2-(tetrahydro-2H-pyran-2-yl)ethyl)amino)pyrazolo[1,5-a]pyrimidine-6-carboxamide] | 45 | > 50000 | >1111 |
| CC(=O)N[C@H]1CC[C@H](NC(=O)c2cnn3cc(-c4cnc(F)cc4C)cc3c2NC(C)C)CC1 [Example 75, N-((1r,4r)-4-acetamidocyclohexyl)-6-(6-fluoro-4-methylpyridin-3-yl)-4-(isopropylamino)pyrrolo[1,2-b]pyridazine-3-carboxamide] | 5.8 | ~22000 | ~3793 |
| COc1ncccc1-c1cc2c(NC(C)C)c(C(=O)N[C@H]3CC[C@H](NC(C)=O)CC3)cnn2c1 [Example 59, N-((1r,4r)-4-acetamidocyclohexyl)-4-(isopropylamino)-6-(2-methoxypyridin-3-yl)pyrrolo[1,2-b]pyridazine-3-carboxamide] | 29 | ~33000 | ~1138 |
| CC(C)Nc1c(C(=O)NC[C@@H](F)C(C)(C)O)cnc2cc(-c3ccc(C#N)cc3)nn12 [Example 141, (R)-2-(4-cyanophenyl)-N-(2-fluoro-3-hydroxy-3-methylbutyl)-7-(isopropylamino)pyrazolo[1,5-a]pyrimidine-6-carboxamide] | 11 | > 50000 | >4545 |
